Test results: patent publication US20240197897A1, “HETEROTANDEM BICYCLIC PEPTIDE COMPLEXES” (Bicycle Tx Limited, priority 2021, published 2024)
Starred links: 1 amine or outer side, 2 acyl side, 3 side chain; linkers in the order of their positions; H or OH if unused. Positions of bridges follow the written chain, without caps; N, C: chain ends. Non-standard residues stand in square brackets, D forms with d. Chains are numbered I, II in the order given. No end group written: not given here. *: point of attachment. TATA = O=C(CC[*:1])N1CN(C(=O)CC[*:2])CN(C(=O)CC[*:3])C1; Hyp = O=C(O)[C@@H]1C[C@@H](O)CN1; hArg = N=C(N)NCCCC[C@H](N)C(=O)O; Cba = N[C@@H](CC1CCC1)C(=O)O; Pent4ynoyl = C#CCCC(=O)*

Test system: NK cells co-cultured with the HT1080-luc tumor cell line
Experiment: Cytokine secretion assay (IFN-gamma, TNF-alpha; NK:HT1080-luc co-culture)
Assay type: cell-based, human
Protocol: Heterotandem bicyclic peptide complexes were evaluated for NK functional readouts (cytotoxicity and cytokine secretion) in NK-tumor cell line co-cultures.
NK cells were isolated using a negative isolation kit (STEMCELL Technologies® 17955) from the total PBMC population purified from whole blood. NK cell pellet was then resuspended in DMEM medium (Corning™ 10-013-CV) with 10% heat-inactivated fetal bovine serum (FBS; Corning® 35-011-CV), 10 mM HEPES (Gibco™ 15-630-080), and 1% Penicillin Streptomycin (Corning™ 30-002-CI), and 50 IU/mL human IL-2 (Miltenyi Biotec® 130-097-748), at a concentration of 4×10^5 cells/mL. For the NK cell cytokine secretion assay, […] NK cell in 50 μl cell suspension were plated in the 96-well U-bottom plate (Grenier Bio One™ 650180) containing 50 μl (4×10^4) HT1080-luc cells (ATCC® CCL-121-luc2) in DMEM (Gibco™ 11875-093; with L-glutamine) with 10% heat-inactivated fetal bovine serum (FBS; Corning® 35-011-CV), 10 mM HEPES (Gibco™ 15-630-080), and 1% Penicillin Streptomycin (Corning™ 30-002-CI). […] The plates were then incubated for 4 hours at 37° C., 5% CO2. Post-incubation, plates was centrifuged at 250×g for 5 minutes and 100 μl supernatant harvested. Samples were immediately stored at −20° C. or assessed for cytokine levels. Interferon-gamma or TNF-alpha levels were measured in 50 μl of collected supernatants through the Human IFN-gamma Quantikine™ ELISA kit (R&D Systems DIF50C) or Human TNF-alpha Quantikine™ ELISA kit (R&D Systems DTAOOD). Data was acquired at wavelength of 450 nm on CLARIOstar® plate-reader and was fit to a four-parameter non-linear regression in CLARIOstar® plate reader MARS Data Analysis™ software and analyzed with GraphPad Prism™ 8.0.2 software to quantify to cytokine levels. Alternatively, TNF-alpha and IFN-gamma cytokine were measured from 25 μl of collected supernatant by Luminex Assay: Human XL Cytokine Discovery Premixed Kit (R&D Systems, FCS™ 18-05) Luminex 200™ flow instrument and xPONENT™ analysis software.

| Substance | secretion of IFN-gamma and TNF-alpha by NK cells (10 nM construct, ELISA, FIG. 12) | TNF-alpha and IFN-gamma production from NK cells (2 nM construct, Luminex, FIG. 11) |
| --- | --- | --- |
| BCY18048: EphA2 specific peptide BCY9594 linked to two NKp46 specific peptides (BCY17662) via N-(acid-PEG3)-N-bis(PEG3-azide) linker (peptide 1 A[hArg]DC[Hyp]LVNPLCLHP[dD]W[hArg]C; peptide 2 ACYLPDYLC[dK](Pent4ynoyl)DEYCA; linker I:4-I:11-I:18, II:2-II:9-II:14 via TATA; also: chain 1 N-terminus and chain 2 D-Lys(PYA) joined through N-(acid-PEG3)-N-bis(PEG3-azide) linker, two copies of chain 2) | induced secretion of IFN-gamma and TNF-alpha |  |
| BCY21687: EphA2 specific peptide BCY9594 linked to three NKp46 specific peptides (BCY17224) via Methane-N-(PEG10-acid)-Tri(MeOPr-amide-PEG10-azide) linker (peptide 1 A[hArg]DC[Hyp]LVNPLCLHP[dD]W[hArg]C; peptide 2 Ac-CY[Cba]PDYLC[dA]DEYCK(Pent4ynoyl); linker I:4-I:11-I:18, II:1-II:8-II:13 via TATA; also: chain 1 N-terminus and chain 2 K(PYA) joined through Methane-N-(PEG10-acid)-Tri(MeOPr-amide-PEG10-azide) linker, three copies of chain 2) |  | Cytokine production from NK cells was observed |
